Source: patent US20070049593A1 (priority 2004, published 2007)
Where a name gives a salt, the structure may show the parent alone.

target: T1, HCV polymerase (Hepatitis C virus genotype 1b, UniProt P26663); test: biochemical; set-up: species or system HCV BK strain
T1 construct: a region encoding NS5B (J Virol 1991 March, 65(3), 1105-13, 544 amino acids after deletion of 47 amino acids on the C-terminal); 6xHis (C); made in house; host or cells: Escherichia coli
Method in brief: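 His-tagged NS5B (BK strain, 47-aa C-terminal deletion, E. coli-expressed) at 0.5 μg/ml copied 5 μg/ml run-off RNA bearing the HCV 3′ UTR with 2 μM UTP plus [3H]UTP, 50 μM ATP/GTP, in pH 7.5 Tris with 5 mM MgCl2, 25 °C, 90 min. TCA-precipitated RNA was counted and IC50 calculated.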

T1 sequence (P26663 2420-2963): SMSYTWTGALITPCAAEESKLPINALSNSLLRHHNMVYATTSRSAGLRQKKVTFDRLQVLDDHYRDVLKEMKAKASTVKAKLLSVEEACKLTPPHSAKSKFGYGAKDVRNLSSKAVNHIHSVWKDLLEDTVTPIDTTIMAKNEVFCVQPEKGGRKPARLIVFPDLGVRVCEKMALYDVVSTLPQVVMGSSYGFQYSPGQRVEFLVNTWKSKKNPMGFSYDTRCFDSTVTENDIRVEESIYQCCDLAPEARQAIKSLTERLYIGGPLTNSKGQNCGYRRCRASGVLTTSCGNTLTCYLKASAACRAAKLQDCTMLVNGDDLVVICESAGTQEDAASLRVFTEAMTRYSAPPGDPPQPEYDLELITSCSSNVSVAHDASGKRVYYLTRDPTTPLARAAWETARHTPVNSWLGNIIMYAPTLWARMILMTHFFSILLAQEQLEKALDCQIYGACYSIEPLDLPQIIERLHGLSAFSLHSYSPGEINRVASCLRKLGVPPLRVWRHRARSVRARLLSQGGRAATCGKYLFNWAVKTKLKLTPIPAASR

Row | Structure (SMILES) | IC50 [nM]
1 | COCCN(CCN1CCCCC1)c1cccc2c1OCCn1c-2c(C2CCCCC2)c2ccc(C(=O)O)cc21 [Example 2-482, 12-cyclohexyl-4-{N-(2-methoxyethyl)-N-[2-(piperidin-1-yl)ethyl]amino}-6,7-dihydro-5-oxa-7a-azadibenzo[a,e]azulene-9-carboxylic acid dihydrochloride] | < 100
2 | COCCC1CCCN(CCN2CCn3c(c(C4CCCCC4)c4ccc(C(=O)O)cc43)-c3ccccc32)C1 (stereo not shown) [Example 1-306, 13-cyclohexyl-5-{2-[3-(2-methoxyethyl)piperidin-1-yl]ethyl}-6,7-dihydro-5H-benzo[5,6][1,4]diazepino[7,1-a]indole-10-carboxylic acid dihydrochloride] | < 100
3 | COc1ccc2c(c1)OCCn1c-2c(C2CCCCC2)c2ccc(C(=O)NC3(C(=O)Nc4ccc(/C(C)=C/C(=O)O)cc4)CCC3)cc21 [Example 2-529, (E)-3-[4-({1-[(12-cyclohexyl-3-methoxy-6,7-dihydro-5-oxa-7a-azadibenzo[a,e]azulene-9-carbonyl)amino]cyclobutanecarbonyl}amino)phenyl]but-2-enoic acid] | < 100
4 | CCN(CCN1CCCCCC1)c1cccc2c1OCCn1c-2c(C2CCCCC2)c2ccc(C(=O)O)cc21 [Example 2-231, 4-{N-[2-(azepan-1-yl)ethyl]-N-ethylamino}-12-cyclohexyl-6,7-dihydro-5-oxa-7a-azadibenzo[a,e]azulene-9-carboxylic acid dihydrochloride] | < 100
5 | COc1ccc2c(c1)OCCn1c-2c(C2CCCCC2)c2ccc(C(=O)NC3(C(=O)Nc4ccc(/C=C/C(=O)O)cc4OCCOCc4ccccc4)CCC3)cc21 [Example 2-530, (E)-3-[3-(2-benzyloxyethoxy)-4-({1-[(12-cyclohexyl-3-methoxy-6,7-dihydro-5-oxa-7a-azadibenzo[a,e]azulene-9-carbonyl)amino]cyclobutanecarbonyl}amino)phenyl]acrylic acid] | < 100
6 | CCCc1ccc2c(c1)N(CCC1CCCN(C(C)C)C1)CCn1c-2c(C2CCCCC2)c2ccc(C(=O)O)cc21 (stereo not shown) [Example 1-354, 13-cyclohexyl-5-[2-(1-isopropylpiperidin-3-yl)ethyl]-3-propyl-6,7-dihydro-5H-benzo[5,6][1,4]diazepino[7,1-a]indole-10-carboxylic acid dihydrochloride] | < 100
7 | O=C(O)c1ccc2c(C3CCCCC3)c3n(c2c1)CCN(CCN1CCCCCCC1)c1cc(Cl)ccc1-3 [Example 1-277, 5-[2-(azocan-1-yl)ethyl]-3-chloro-13-cyclohexyl-6,7-dihydro-5H-benzo[5,6][1,4]diazepino[7,1-a]indole-10-carboxylic acid dihydrochloride] | < 100
8 | CN(CCN1CCCCC1)c1cccc2c1OCCn1c-2c(C2CCCCC2)c2ccc(C(=O)O)cc21 [Example 2-474, 12-cyclohexyl-4-(N-methyl-N-[2-(piperidin-1-yl)ethyl]amino}-6,7-dihydro-5-oxa-7a-azadibenzo[a,e]azulene-9-carboxylic acid dihydrochloride] | < 100
9 | CN(C)CCN1CCn2c(c(C3CCCCC3)c3ccc(C(=O)O)cc32)-c2ccc(OCc3cccc(C(=O)O)c3)cc21 [Example 1-586, 3-(3-carboxybenzyloxy)-13-cyclohexyl-5-(2-dimethylaminoethyl)-6,7-dihydro-5H-benzo[5,6][1,4]diazepino[7,1-a]indole-10-carboxylic acid dihydrochloride] | < 100
10 | O=C(O)c1ccc2c(C3CCCCC3)c3n(c2c1)CCN(CC(=O)N1CCC(F)(F)CC1)c1ccccc1-3 [Example 1-171, 13-cyclohexyl-5-[2-(4,4-difluoropiperidin-1-yl)-2-oxoethyl]-6,7-dihydro-5H-benzo[5,6][1,4]diazepino[7,1-a]indole-10-carboxylic acid monohydrochloride] | < 100
